Experimental data published in patent US9650340B2, “5-fluoro-N-(pyridin-2-yl)pyridin-2-amine derivatives containing a sulfoximine group” (BAYER PHARMA AKTIENGESELLSCHAFT, priority 2012, dated 2017).
In brackets after ≈: the same amount, converted by molar mass.

How the values were obtained:
[1] = Equilibrium shake flask solubility assay, thermodynamic solubility in water pH 6.5; format: physicochemical; conditions: phosphate buffer pH 6.5, 24 h, room temperature; for solubility at 24 h: phosphate buffer, pH 6.5, aqueous buffer, thermodynamic from solid
Procedure: 4. Equilibrium Shake Flask Solubility Assay:
4a) Thermodynamic Solubility in Water
The thermodynamic solubility of compounds in water was determined by an equilibrium shake flask method (see for example: E. H. Kerns, L. Di: Drug-like Properties: Concepts, Structure Design and Methods, 276-286, Burlington, Mass., Academic Press, 2008). A saturated solution of the drug was prepared and the solution was mixed for 24 h to ensure that equilibrium was reached. The solution was centrifuged to remove the insoluble fraction and the concentration of the compound in solution was determined using a standard calibration curve. To prepare the sample, 2 mg solid compound was weighed in a 4 mL glass vial. 1 mL phosphate buffer pH 6.5 was added. The suspension was stirred for 24 hrs at room temperature. The solution was centrifuged afterwards. To prepare the sample for the standard calibration, 2 mg solid sample was dissolved in 30 mL acetonitrile. After sonification the solution was diluted with water to 50 mL. Sample and standards were quantified by HPLC with UV-detection. For each sample two injection volumes (5 and 50 μl) in triplicates were made. Three injection volumes (5 μl, 10 μl and 20 μl) were made for the standard.
The areas of sample- and standard injections as well as the calculation of the solubility value (in mg/l) were determined by using HPLC software (Waters Empower 2 FR).

[2] = target: human carbonic anhydrase-2 (Homo sapiens, UniProt P00918); assay: Carbonic anhydrase assay, carbonic anhydrase-2; format: biochemical; conditions: read-out: Inhibition of Carbonic anhydrase-2 IC50
Procedure: (§1) 6. Carbonic Anhydrase Assay
(§2) The principle of the assay is based on the hydrolysis of 4-nitrophenyl acetate by carbonic anhydrases (Pocker & Stone, Biochemistry, 1967, 6, 668), with subsequent photometric determination of the dye product 4-nitrophenolate at 400 nm by means of a 96-channel spectral photometer.
(§3) 2 μL of the test compounds, dissolved in DMSO (100-fold final concentration), in a concentration range of 0.03-10 μmol/L (final), was pipetted as quadruplicates into the wells of a 96-hole microtiter plate. Wells that contained the solvent without test compounds were used as reference values (1. Wells without carbonic anhydrase for correction of the non-enzymatic hydrolysis of the substrate, and 2. Wells with carbonic anhydrase for determining the activity of the non-inhibited enzyme).
(§4) 188 μL of assay buffer (10 mmol/L of Tris/HCl, pH 7.4, 80 mmol/L of NaCl), with or without 3 units/well of carbonic anhydrase-1 [=human carbonic anhydrase-1 (Sigma, #C4396)] in order to determine carbonic anhydrase-1 inhibition or 3 units/well of carbonic anhydrase-2 [=human carbonic anhydrase-2 (Sigma, #C6165)] for measuring carbonic anhydrase-2 inhibition, was pipetted into the wells of the microtiter plate.

[3] = target: T1, human carbonic anhydrase-1 (Homo sapiens, UniProt P00915); assay: Carbonic anhydrase assay, carbonic anhydrase-1; format: biochemical; conditions: read-out: Inhibition of Carbonic anhydrase-1 IC50
T1 construct: purchased Sigma C4396
T1 sequence (P00915 whole entry): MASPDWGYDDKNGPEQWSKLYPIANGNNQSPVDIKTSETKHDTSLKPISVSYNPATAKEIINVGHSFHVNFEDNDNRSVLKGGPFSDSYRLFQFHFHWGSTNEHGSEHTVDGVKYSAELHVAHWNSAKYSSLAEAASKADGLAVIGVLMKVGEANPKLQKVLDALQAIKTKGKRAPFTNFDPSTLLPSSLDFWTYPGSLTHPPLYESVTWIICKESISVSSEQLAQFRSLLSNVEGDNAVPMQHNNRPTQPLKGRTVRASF
Procedure: as §1, §2, §3, §4

Caco-2 cell monolayers = assay: Caco-2 permeation assay; format: in vitro ADME, human; conditions: for Papp A-B (Mari) / Papp B-A (Mari): Caco-2, 2 μM test compound; for Papp A-B (Mari): apical to basolateral; for Papp B-A (Mari): basolateral to apical
Procedure: 5. Caco-2 Permeation Assay:
Caco-2 cells (purchased from DSMZ Braunschweig, Germany) were seeded at a density of 4.5×10^4 cells per well on 24 well insert plates, 0.4 μm pore size, and grown for 15 days in DMEM medium supplemented with 10% fetal bovine serum, 1% GlutaMAX (100×, GIBCO), 100 U/mL penicillin, 100 μg/mL streptomycin (GIBCO) and 1% non essential amino acids (100 ×). Cells were maintained at 37° C. in a humified 5% CO2 atmosphere. Medium was changed every 2-3 day. Before running the permeation assay, the culture medium was replaced by a FCS—free hepes-carbonate transport buffer (pH 7.2). For assessment of monolayer integrity the transepithelial electrical resistance (TEER) was measured. Test compounds were predissolved in DMSO and added either to the apical or basolateral compartment in final concentration of 2 μM in transport buffer. Before and after 2 h incubation at 37° C. samples were taken from both compartments. Analysis of compound content was done after precipitation with methanol by LC/MS/MS analysis. Permeability (Papp) was calculated in the apical to basolateral (A→B) and basolateral to apical (B→A) directions. The apparent permeability was calculated using following equation: Papp=(Vr/Po)(1/S)(P2/t)
Where Vr is the volume of medium in the receiver chamber, Po is the measured peak area or height of the test drug in the donor chamber at t=o, S the surface area of the monolayer, P2 is the measured peak area of the test drug in the acceptor chamber after 2 h of incubation, and t is the incubation time. The efflux ratio basolateral (B) to apical (A) was calculated by dividing the Papp B-A by the Papp A-B. In addition the compound recovery was calculated. The following reference compounds were used for the classification of the permeability class: Antipyrine, Pyrazosin, Verapamil, Fluvastatin, Cimetidine, Ranitidine, Atenolol, Sulfasalazine.

SMILES | solubility at 24 h [1] | IC50 [2] | IC50 [3] | Solubility in water at pH 6.5 [1] | Papp A-B (Mari) (Caco-2 cell monolayers) | Papp B-A (Mari) (Caco-2 cell monolayers) | Efflux ratio (Caco-2 cell monolayers; Caco-2, 2 μM, Papp B-A / Papp A-B)
COc1cc(F)ccc1-c1cc(Nc2cc(CS(C)(=N)=O)ccn2)ncc1F (racemic) [Example 1, (rac)-5-Fluoro-4-(4-fluoro-2-methoxyphenyl)-N-{4-[(S-methylsulfonimidoyl)methyl]pyridin-2-yl}pyridin-2-amine] | 13 µg/mL (≈ 32.1 µM) | > 10 µM | > 10 µM | – | – | – | –
COc1cc(F)ccc1-c1cc(Nc2cc(CS(C)(=N)=O)ccn2)ncc1F (single isomer, unassigned; (+)) [Example 2, (+)-5-Fluoro-4-(4-fluoro-2-methoxyphenyl)-N-{4-[(S-methylsulfonimidoyl)methyl]pyridin-2-yl}pyridin-2-amine] | 25 µg/mL (≈ 61.8 µM) | – | – | – | – | – | –
COc1cc(F)ccc1-c1cc(Nc2cc(CS(C)(=N)=O)ccn2)ncc1F (single isomer, unassigned; (-)) [Example 3, (−)-5-Fluoro-4-(4-fluoro-2-methoxyphenyl)-N-{4-[(S-methylsulfonimidoyl)methyl]pyridin-2-yl}pyridin-2-amine] | – | – | – | 27 mg/l | 13.3 ×10⁻⁶ cm/s | 19.7 ×10⁻⁶ cm/s | –
COc1cc(F)ccc1-c1cc(Nc2cc(CS(C)(=N)=O)cc(C(F)(F)F)n2)ncc1F (single isomer, unassigned; (-)) [Example 23, (−)-5-Fluoro-4-(4-fluoro-2-methoxyphenyl)-N-{4-[(S-methylsulfonimidoyl)methyl]-6-(trifluoromethyl)pyridin-2-yl}pyridin-2-amine] | – | – | – | – | 4.7 ×10⁻⁶ cm/s | 6.2 ×10⁻⁶ cm/s | 1.3
